Test results from patent US11246910B2, “Methods of treating immunological disorders using immunosuppressive compositions” (Singapore Health Services Pte Ltd, priority 2016, dated 2022).

How the values were obtained:
NSG mice with GVHD = assay: Xenogeneic GVHD mouse model (human PBMCs into irradiated NSG mice)
Procedure: Moderate and severe xenogeneic GVHD mouse model was induced by injecting 200×10^6 cells/kg and 400×10^6 cells/kg of human cryopreserved PBMCs to NSG mice respectively by IV injection via tail vein. 240 cGy of irradiation was given to the mice 3-4 hours before the transplantation. […] NSG mice injected with dPBS were used as negative control. […] Injection volume was normalized to the body weight of the mice. Mouse survival was monitored daily, while clinical scoring was done every three days. 30-40 ul of mouse peripheral blood (PB) was collected from tail vein every 3 days, from day 18 onwards until day 36 post-treatment. Mouse plasma and isolated cells from PB, marrow and spleen were used for luminex assay (Bio-rad) and flow cytometry analysis (CyAN, Beckman coulter). […] At day 0, human PBMCs were transplanted into NSG mice to create the referenced GVHD model. The onset of GVHD is took place around day 10 to day 12 PT. Treatment of the sick mice commenced on day 10, day 14, day 17 and day 21 PT, and samples were taken from the mice on day 18, 21, 24, 27, 30, 33 and 36 PT.
Mouse survival was monitored daily and clinical score (for GVHD) was monitored every three days. The assessment of clinical GVHD index was based on five parameters: weight loss, posture, activity, fur texture and skin integrity, giving a maximum index of 10. At experimental end-point on day 30 post-treatment, histological evaluation was performed on representative mice on the following tissues: skin, small intestine and kidney with Haematoxylin and Eosin (H&E) stain. Key histological parameters assessed were different for each tissue type according to accepted published criteria for acute GVHD in the different organ systems. Basal vacuolar change, spongiosis and lymphocytic satelittosis were graded for skin; crypt apoptosis, lymphocytic inflammation and intraepithelial lymphocytosis was graded for small intestine; and interstitial inflammation, tubulitis and arterial changes were graded for kidney. All parameters were graded with 4 tiers (none, mild, moderate and severe) and given a score of 0-3, giving a maximum index of 27 (Table 7). The slides were scored in blinded fashion by a single observer.
Circulating human source cytokines/chemokines were measured using a Bio-plex Pro Human Cytokine 17-plex kit (Bio-rad). It included analytes of G-CSF, GM-CSF, IFN-γ, IL-1β, IL-2, IL-4, IL-5, IL-6, IL-7, IL-8, IL-10, IL-12, IL-13, IL-17A, MCP-1, MIP-1β and TNF-α in the analysis. Following the standard protocol, 16 times diluted plasma samples were incubated with magnetic beads for 2 hours, the with detection antibodies for 1 hour and finally with streptavidin-PE for 10 minutes at room temperature. Three complete wash steps were required between each incubation step. The plate was read on Milliplex Analyzer (Millipore) with Luminex xPONENT software.
Cells isolated from NSG mouse peripheral blood (PB) harvested from tail vein, BM and spleen were subjected to flow cytometric analysis using CyAN (Beckman coulter) with Summit software.

DBA/1J mice with CIA = assay: Collagen-induced arthritis (CIA) mouse model; type: in vivo; conditions: treatment started on mice with mild arthritis (FIG. 21A)
Procedure: Arthritis was induced in 8 to 10 week-old DBA/1J mice following immunization with collagen and complete Freund's adjuvant (CFA) (Chondrex, USA). Complete Freund's adjuvant was prepared by mixing heat-inactivated mycobacterial strain H37RA in incomplete Freund's adjuvant (4 mg/mi). Lyophilized bovine type II collagen (Chondrex, USA) was dissolved overnight in acetic acid at 2 mg/ml. Complete Freund's adjuvant and collagen were mixed at a ratio of 1:1 to form an emulsion. 100 μg of collagen, which was then injected intradermally at the base of the tail. Mice were scored for arthritis weekly from day 30 after immunization. 50 ng/ml of CXCL5 was given twice/week to CIA mice for 3 consecutive weeks, to around day 40 to 50 post-induction, when mice started to show the arthritis symptoms. Mice treated with dPBS, bone marrow-derived mesenchymal stem cells (BM-MSCs; 5-10×10^6 cells/kg, single injection) and Prednisolone (Pred) (1 mg/kg/day for first 10 days, 0.5 mg/kg/day for the second 10 days) were used as positive and standard controls, respectively. Injection volume was normalized to the body weight of the mice. Mice were monitored for another 3 weeks post-treatment and then sacrificed for further analysis. Peripheral blood (PB) was collected on day 15 and day 42 post-treatment. Isolated blood cells and plasma were used for flow cytometry analysis and Luminex assay. […]

[1] = histological score in NSG mice, H&E, Table 7

In the case of “CXCL5: epithelial-derived neutrophil-activating protein 78, a CXC chemokine; human source”, the “Kidney: Arterial changes” value (NSG mice with GVHD; [1]) is reported as “none (graded with 4 tiers (none, mild, moderate and severe) and given a score of 0-3)”, the “Kidney: Interstitial inflammation” value (NSG mice with GVHD; [1]) is reported as “mild (graded with 4 tiers (none, mild, moderate and severe) and given a score of 0-3)” and the “Kidney: Tubulitis” value (NSG mice with GVHD; [1]) is reported as “mild (graded with 4 tiers (none, mild, moderate and severe) and given a score of 0-3)”. For the same substance, the “Skin: Lymphocytic satelitosis number of cells” value (NSG mice with GVHD; [1]) was less than 5, the “Skin: Lymphocytic satelitosis, grade” value (NSG mice with GVHD; [1]) was “mild (graded with 4 tiers (none, mild, moderate and severe) and given a score of 0-3)” and the “Skin: Vacuolar change” value (NSG mice with GVHD; [1]) was “none (graded with 4 tiers (none, mild, moderate and severe) and given a score of 0-3)”. The “Skin: spongiosis” value (NSG mice with GVHD; [1]) was “none (graded with 4 tiers (none, mild, moderate and severe) and given a score of 0-3)”, the “Small intestine: Apoptosis” value (NSG mice with GVHD; [1]) was 1 /hpf and the “Small intestine: Apoptosis, grade” value (NSG mice with GVHD; [1]) was “mild (graded with 4 tiers (none, mild, moderate and severe) and given a score of 0-3)”. The “Small intestine: Intraepithelial lymphocytosis” value (NSG mice with GVHD; [1]) was 2/50 epithelial /50 epithelial cells, the “Small intestine: Intraepithelial lymphocytosis, grade” value (NSG mice with GVHD; [1]) was “cells(mild) (graded with 4 tiers (none, mild, moderate and severe) and given a score of 0-3)” and the “Small intestine: Lymphocytic inflammation” value (NSG mice with GVHD; [1]) was “mild (graded with 4 tiers (none, mild, moderate and severe) and given a score of 0-3)”. The “Σscore (overall histological score)” value (NSG mice with GVHD; maximum index 27, Mild, 0-9, moderate, 10-18, Severe, 19-27) was 6, the 36-day survival (NSG mice with GVHD; moderate GVHD) was 78.3% and the symptoms (NSG mice with GVHD; moderate GVHD) was “mild”. The “human pro-inflammatory cytokine secretion in the circulation” value (NSG mice with GVHD; plasma, Luminex 17-plex (FIGS. 8, 11)) was “comparable to the 2F cocktail in the suppression of pro-inflammatory cytokines IFN-γ, IL-6, IL-8, and MIP-1β”, the 36-day survival (NSG mice with GVHD; severe GVHD) was 26.1% and the symptoms (NSG mice with GVHD; severe GVHD) was “moderate”. For the same substance, the “immunosuppression effect on circulating CTLs, Th1 cells, splenic macrophages and NK cells” value (NSG mice with GVHD; single factor alone, cell population assay (FIG. 10)) was “suboptimal immunosuppression effect” and the “disease activity index (DAI)” value (DBA/1J mice with CIA) was 8.7±4.2.
